From ChEMBL document CHEMBL5046228 (Eur J Med Chem, 2022) come the findings set out here.

In one test the test system is NCI-H1975. Briefly: Induction of cell cycle arrest in human NCI-H1975 cells assessed as accumulation at S phase at 0.02 uM after 36 hrs by PI staining based flow cytometry analysis (reference value: 32.7 %). Format: functional. (In flow cytometry, cells or beads pass a laser one at a time.)
In the next test the test system is NCI-H1299. Put plainly: Induction of apoptosis in human NCI-H1299 cells assessed as increase in late apoptotic cells at 0.1 uM after 36 hrs by annexin-V-FITC/PI staining based flow cytometric analysis (reference value: 4.39%). Format: functional.

Each structure is given as a SMILES string.

With `C#CCN(C)CCN(C)c1cc(OC)c(Nc2nccc(Nc3cn(C)c4ccccc34)n2)cc1NC(=O)C=C`, the Activity in the test on NCI-H1975 was determined as 27.3%; in the test on NCI-H1299, 5.69%.
